For 15 molecules, IC50 results are on record in patent US7713994B2 (Wyeth LLC, priority 2005, dated 2010).

Read-outs that look alike come from different tables or passages of the source. A value given as a limit tells only on which side of the number the result lay.

One assay concerns the target T1, cyclin E/CDK2 enzyme (Homo sapiens, UniProt P24941).
T1 construct: made in house; host or cells: Sf9 insect cells, recombinant baculovirus
The assay can be described thus: CDK2 ELISA kinase assay (phospho-Rb ser 795 detection). In kind it is biochemical. In short, it runs like this:
(§1)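 Inhibition was derived from A450 relative to control wells lacking compound, following an anti-phospho-Rb Ser795 sandwich of HRP detection. The reactions combined coated GST-Rb fragment, 200 μM ATP and baculovirus-expressed cyclin/CDK enzymes, incubated for 1 h at 30° C.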

The next assay concerns the target T2, cyclin B/CDK1 enzyme (Homo sapiens, UniProt P06493).
T2 construct: purchased New England BioLabs; host or cells: Sf9 insect cells, recombinant baculovirus
The experiment in a line: CDK1 ELISA kinase assay (phospho-Rb ser 795 detection). In kind it is biochemical. The method, boiled down: as §1

Another assay has as its target T3, cyclin D1/cdk 4 enzyme (Homo sapiens, UniProt P11802).
T3 construct: made in house; host or cells: Sf9 insect cells, recombinant baculovirus
The experiment in a line: CDK4 ELISA kinase assay (phospho-Rb ser 795 detection). In kind it is biochemical. In short, it runs like this: as §1

The next assay relates to LoVo. The experiment in a line: Cytotoxicity assay (SRB), LoVo. Conditions: LoVo cells, SRB, read-out: In Vitro Cellular Activity IC50 LOVO. It counts as cell-based. In short, it runs like this: (§2)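 Plate cells, let them attach overnight, add compound dilutions in RPMI 1640/5% FBS, and incubate 3 days (BT474 6 days). Then fix with TCA, stain with SRB, dissolve the dye in Tris and read at 540 nm.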

For another assay, the system named is HCT-116. The assay can be described thus: Cytotoxicity assay (SRB), HCT-116. The conditions noted are these: HCT116 cells, SRB, read-out: In Vitro Cellular Activity IC50 HCT116. It counts as cell-based. The method, boiled down:
as §2

In a further assay the test system is MCF-7. The assay can be described thus: Cytotoxicity assay (SRB), MCF-7. It counts as cell-based. Conditions: MCF-7 cells, SRB, read-out: In Vitro Cellular Activity IC50 MCF-7. The method, boiled down:
as §2

The next assay concerns BT474. The experiment in a line: Cytotoxicity assay (SRB), BT474. In kind it is cell-based. The method, boiled down: as §2
[1] abbreviates: In Vitro Enzyme Assay, cyclin E/CDK2, read-out: CDK2 IC50.
Setting [2] is: In Vitro Enzyme Assay, cyclin B/CDK1, read-out: CDK1 IC50.
[3] abbreviates: In Vitro Enzyme Assay, cyclin D1/cdk 4, read-out: CDK4 IC50.
Setting [4] is: Homo sapiens, LoVo, 72 h, 3 days.
Where [5] appears, read: Homo sapiens, HCT-116, 72 h, 3 days.
Setting [6] is: Homo sapiens, MCF7, 72 h, 3 days.
Where [7] appears, read: Homo sapiens, BT-474, 144 h, BT474 cells, 6 days, SRB; read-out: In Vitro Cellular Activity IC50 BT474.
Setting [8] is: In Vitro Enzyme Assays, read-out: CDK2 IC50.
[9] abbreviates: In Vitro Enzyme Assays, read-out: CDK1 IC50.
Where [10] appears, read: In Vitro Enzyme Assays, 200 μM ATP, read-out: CDK4 IC50.
Where [11] appears, read: Homo sapiens, LoVo, 72 h, three days.
Where [12] appears, read: Homo sapiens, HCT-116, 72 h, three days.
Setting [13] is: Homo sapiens, MCF7, 72 h, three days.
Setting [14] is: Homo sapiens, BT-474, 144 h, BT474 cells, SRB, 6 days; read-out: In Vitro Cellular Activity IC50 BT474.

T3 sequence (P11802 whole entry, species assumed): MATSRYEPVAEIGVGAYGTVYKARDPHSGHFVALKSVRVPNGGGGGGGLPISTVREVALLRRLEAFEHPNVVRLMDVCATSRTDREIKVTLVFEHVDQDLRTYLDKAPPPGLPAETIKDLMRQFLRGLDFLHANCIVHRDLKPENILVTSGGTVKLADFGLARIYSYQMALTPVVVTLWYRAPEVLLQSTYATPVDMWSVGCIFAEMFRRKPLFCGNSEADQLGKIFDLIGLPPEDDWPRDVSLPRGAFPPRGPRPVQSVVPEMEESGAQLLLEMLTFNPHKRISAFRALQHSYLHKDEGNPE
T3 sequence (P24385 whole entry partner, species assumed): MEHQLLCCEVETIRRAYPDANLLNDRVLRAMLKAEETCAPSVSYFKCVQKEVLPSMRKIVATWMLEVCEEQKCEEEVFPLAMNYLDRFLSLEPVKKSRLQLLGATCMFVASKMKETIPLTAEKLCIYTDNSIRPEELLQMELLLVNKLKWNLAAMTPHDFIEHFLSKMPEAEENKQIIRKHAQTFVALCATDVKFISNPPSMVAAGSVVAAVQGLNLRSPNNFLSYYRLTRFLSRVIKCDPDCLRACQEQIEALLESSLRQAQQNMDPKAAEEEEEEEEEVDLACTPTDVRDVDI
T2 sequence (P06493 whole entry): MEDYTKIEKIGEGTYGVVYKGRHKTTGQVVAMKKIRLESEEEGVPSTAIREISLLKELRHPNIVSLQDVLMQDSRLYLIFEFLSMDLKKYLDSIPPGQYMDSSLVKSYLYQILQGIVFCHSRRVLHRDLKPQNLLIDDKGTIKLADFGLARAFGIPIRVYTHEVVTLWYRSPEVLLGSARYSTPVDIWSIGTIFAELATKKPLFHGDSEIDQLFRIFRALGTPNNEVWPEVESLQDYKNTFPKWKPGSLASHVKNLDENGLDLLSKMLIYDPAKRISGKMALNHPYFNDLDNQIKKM
T2 sequence (P14635 whole entry partner): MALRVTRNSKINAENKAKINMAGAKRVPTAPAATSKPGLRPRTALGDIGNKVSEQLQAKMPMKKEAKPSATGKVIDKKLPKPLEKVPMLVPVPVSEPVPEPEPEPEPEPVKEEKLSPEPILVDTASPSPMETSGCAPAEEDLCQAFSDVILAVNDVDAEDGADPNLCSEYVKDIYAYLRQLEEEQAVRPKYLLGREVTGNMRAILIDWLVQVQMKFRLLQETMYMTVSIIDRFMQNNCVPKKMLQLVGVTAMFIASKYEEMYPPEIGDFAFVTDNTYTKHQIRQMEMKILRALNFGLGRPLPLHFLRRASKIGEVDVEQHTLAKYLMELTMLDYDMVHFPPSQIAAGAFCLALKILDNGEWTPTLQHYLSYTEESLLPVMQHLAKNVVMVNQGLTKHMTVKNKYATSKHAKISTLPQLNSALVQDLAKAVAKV

`O=C1NC(=O)c2ccc(-c3ccco3)cc2C1=CNCc1ccc(O)c(O)c1` [Example 621, 4-[(3,4-Dihydroxy-benzylamino)-methylene]-6-furan-2-yl-4H-isoquinoline-1,3-dione]: the IC50 is 4.1 µM on cyclin E/CDK2 enzyme (setting [1]); 8.1 µM at cyclin B/CDK1 enzyme (setting [2]); 0.01 µM at cyclin D1/cdk 4 enzyme (setting [3]); 8.7 µM in the assay on LoVo (setting [4]); 9.7 µM with HCT-116 (setting [5]); 6.8 µM in the assay on MCF-7 (setting [6]). In the assay with BT474 (setting [7]), the IC50 worked out at 3.5 µM.
Regarding `O=C1NC(=O)c2ccc(I)cc2/C1=C/NCc1cc(O)ccc1I` [Example 496, 4-[(5-Hydroxy-2-iodo-benzylamino)-methylene]-6-iodo-4H-isoquinoline-1,3-dione], the IC50 at cyclin E/CDK2 enzyme (setting [1]) is more than 50 µM; on cyclin B/CDK1 enzyme (setting [2]) it was more than 50 µM; at cyclin D1/cdk 4 enzyme (setting [3]), 2.7 µM; in the assay on LoVo (setting [4]), 3.1 µM; in the assay with HCT-116 (setting [5]), 2.6 µM; in the assay on MCF-7 (setting [6]) it was 5.4 µM. Besides, in the assay on BT474 (setting [7]), the IC50 is 7.4 µM.
On to `COC(C)C1CCCN1Cc1ccc(N/C=C2\C(=O)NC(=O)c3ccc(I)cc32)cc1` (stereo not drawn) [Example 375, 6-Iodo-4-({4-[2-(1-methoxy-ethyl)-pyrrolidin-1-ylmethyl]-phenylamino}-methylene)-4H-isoquinoline-1,3-dione], for which the IC50 was more than 50 µM at cyclin E/CDK2 enzyme (setting [8]); more than 50 µM on cyclin B/CDK1 enzyme (setting [9]); 0.39 µM on cyclin D1/cdk 4 enzyme (setting [10]); 3.2 µM in the assay with LoVo (setting [11]); 3.9 µM in the assay on HCT-116 (setting [12]); 0.71 µM with MCF-7 (setting [13]). Besides, in the assay on BT474 (setting [14]), the IC50 turned out to be 0.52 µM.
For the molecule `NS(=O)(=O)c1ccc(CNC=C2C(=O)NC(=O)c3ccc(C=Cc4cnccn4)cc32)cc1` [Example 655, 4-({[1,3-Dioxo-6-(2-pyrazin-2-yl-vinyl)-2,3-dihydro-1H-isoquinolin-4-ylidenemethyl]-amino}-methyl)-benzenesulfonamide], the IC50 was found to be 11 µM on cyclin E/CDK2 enzyme (setting [1]); 23.6 µM on cyclin B/CDK1 enzyme (setting [2]); 0.57 µM at cyclin D1/cdk 4 enzyme (setting [3]); 7.6 µM with LoVo (setting [4]); 1.2 µM in the assay with HCT-116 (setting [5]); 7.7 µM with MCF-7 (setting [6]). Moreover, the IC50 in the assay with BT474 (setting [7]) was determined as 2 µM.
`CC(C)[Si](Oc1cc(CN/C=C2\C(=O)NC(=O)c3ccc(I)cc32)ccc1N)(C(C)C)C(C)C` [Example 323, (4Z)-4-[({4-Amino-3-[(triisopropylsilyl)oxy]benzyl}amino)methylene]-6-iodoisoquinoline-1,3(2H,4H)-dione]: the IC50 is 42.5 µM on cyclin E/CDK2 enzyme (setting [8]); more than 50 µM at cyclin B/CDK1 enzyme (CDK1 IC50, In Vitro Enzyme Assays); 1.9 µM against cyclin D1/cdk 4 enzyme (CDK4 IC50, In Vitro Enzyme Assays, 200 μM ATP); more than 50 µM with LoVo (setting [11]); 22 µM with HCT-116 (setting [12]); 10 µM in the assay on MCF-7 (setting [13]). The IC50 with BT474 (setting [14]) amounted to 18.3 µM.
Turning to `CCOC[C@@H]1CCCN1Cc1ccc(N/C=C2\C(=O)NC(=O)c3ccc(I)cc32)cc1` [Example 411, 4-{[4-(2-Ethoxymethyl-pyrrolidin-1-ylmethyl)-phenylamino]-methylene}-6-iodo-4H-isoquinoline-1,3-dione], the IC50 on cyclin E/CDK2 enzyme (setting [8]) was more than 50 µM; at cyclin B/CDK1 enzyme (setting [9]) it was more than 50 µM; on cyclin D1/cdk 4 enzyme (setting [10]) it was 0.7 µM; with LoVo (setting [4]) it was 3.5 µM; in the assay with HCT-116 (setting [5]), 3.8 µM; in the assay on MCF-7 (setting [6]), 1.6 µM. For the same molecule, in the assay on BT474 (setting [7]), the IC50 was 0.45 µM.
As for `CN1CCN(CCCNC=C2C(=O)NC(=O)c3ccc(-n4cccc4)cc32)CC1` [Example 279, 4-{[3-(4-Methyl-piperazin-1-yl)-propylamino]-methylene}-6-pyrrol-1-yl-4H-isoquinoline-1,3-dione], the half-maximal inhibitory concentration (IC50) was more than 50 µM on cyclin E/CDK2 enzyme (setting [8]); more than 50 µM on cyclin B/CDK1 enzyme (setting [9]); 0.19 µM at cyclin D1/cdk 4 enzyme (setting [10]); 11 µM in the assay with LoVo (setting [11]); 10 µM in the assay on HCT-116 (setting [12]); 5.3 µM with MCF-7 (setting [13]). Also, in the assay with BT474 (setting [14]), the IC50 was 6 µM.
Regarding `CC(O)C1CCCN1Cc1ccc(N/C=C2\C(=O)NC(=O)c3ccc(I)cc32)cc1` (single isomer, unassigned) [Example 374, 4-({4-[2-(1-Hydroxy-ethyl)-pyrrolidin-1-ylmethyl]-phenylamino}-methylene)-6-iodo-4H-isoquinoline-1,3-dione], the IC50 at cyclin E/CDK2 enzyme (setting [8]) was 37.1 µM; on cyclin B/CDK1 enzyme (setting [9]), more than 50 µM; on cyclin D1/cdk 4 enzyme (setting [10]), 1.3 µM; in the assay on LoVo (setting [11]) it was 3.8 µM; with HCT-116 (setting [12]), 3.2 µM; in the assay on MCF-7 (setting [13]), 1 µM. For the same molecule, the IC50 in the assay with BT474 (setting [14]) was 0.46 µM.
For `O=C1NC(=O)c2ccc(I)cc2/C1=C/Nc1ccc(N2CCNCC2)cc1` [Example 378, (4Z)-6-Iodo-4-{[(4-piperazin-1-ylphenyl)amino]methylene}isoquinoline-1,3(2H,4H)-dione], the IC50 at cyclin E/CDK2 enzyme (setting [8]) worked out at 15.4 µM; at cyclin B/CDK1 enzyme (setting [9]) it was 20.4 µM; on cyclin D1/cdk 4 enzyme (setting [10]), 0.65 µM; with LoVo (setting [11]), 2.6 µM; with HCT-116 (setting [12]), 1.5 µM; in the assay with MCF-7 (setting [13]) it was 1.1 µM. Besides, in the assay on BT474 (setting [14]), the IC50 is 2.9 µM.
For the molecule `CN1CCN(c2ccc(NC=C3C(=O)NC(=O)c4ccc(C=Cc5ccccn5)cc43)cc2)CC1` [Example 675, 4-{[4-(4-Methyl-piperazin-1-yl)-phenylamino]-methylene}-6-(2-pyridin-2-yl-vinyl)-4H-isoquinoline-1,3-dione], the IC50 at cyclin E/CDK2 enzyme (setting [1]) is more than 50 µM; at cyclin B/CDK1 enzyme (setting [2]), more than 50 µM; at cyclin D1/cdk 4 enzyme (setting [3]), 1.77 µM; in the assay on LoVo (setting [4]), 6.8 µM; with HCT-116 (setting [5]) it was 2.3 µM; in the assay with MCF-7 (setting [6]) it was 7.2 µM. The concentration for half-maximal inhibition (IC50) with BT474 (setting [7]) was found to be 7.7 µM.
Turning to `CN(CCN1CCCCC1)c1ccc(N/C=C2\C(=O)NC(=O)c3ccc(Br)cc32)cc1` [Example 256, (4Z)-6-Bromo-4-[({4-[methyl(2-piperidin-1-ylethyl)amino]phenyl}amino)methylene]isoquinoline-1,3(2H,4H)-dione], the IC50 was more than 50 µM at cyclin E/CDK2 enzyme (setting [8]); more than 50 µM on cyclin B/CDK1 enzyme (setting [9]); 4.3 µM at cyclin D1/cdk 4 enzyme (setting [10]); 3.6 µM with LoVo (setting [11]); 3.1 µM in the assay with HCT-116 (setting [12]); 5.3 µM in the assay with MCF-7 (setting [13]). For the same molecule, the IC50 in the assay on BT474 (setting [14]) came to 7.5 µM.
Turning to `COc1ccc(CNC=C2C(=O)NC(=O)c3ccc(C=Cc4ccncc4)cc32)cc1O` [Example 824, 4-[(3-Hydroxy-4-methoxy-benzylamino)-methylene]-6-(2-pyridin-4-yl-vinyl)-4H-isoquinoline-1,3-dione], the half-inhibitory concentration (IC50) at cyclin E/CDK2 enzyme (setting [1]) was 34.7 µM; at cyclin B/CDK1 enzyme (setting [2]) it was more than 50 µM; on cyclin D1/cdk 4 enzyme (setting [3]), 0.01 µM; in the assay on LoVo (setting [4]), more than 50 µM; in the assay on HCT-116 (setting [5]), 27.5 µM; in the assay on MCF-7 (setting [6]), 33.2 µM. In addition, the IC50 in the assay on BT474 (setting [7]) was more than 50 µM.
With “6-Bromo-4-[(4-pyrrolidin-1-ylmethyl-phenylamino)-methylene]-1,4-dihydro-2H-isoquinolin-3-one & 8-Bromo-4-[(4-pyrrolidin-1-ylmethyl-phenylamino)-methylene]-1,4-dihydro-2H-isoquinolin-3-one [Example 846]”, the IC50 at cyclin E/CDK2 enzyme (setting [1]) was more than 50 µM; on cyclin B/CDK1 enzyme (setting [2]) it was more than 50 µM; on cyclin D1/cdk 4 enzyme (setting [3]) it was 2.5 µM; in the assay on LoVo (3 days), 4.8 µM; in the assay with HCT-116 (3 days), 2.6 µM; with MCF-7 (3 days), 4.9 µM. Moreover, the IC50 with BT474 (BT474 cells, 6 days, SRB; read-out: In Vitro Cellular Activity IC50 BT474) came to 10.7 µM.
In the case of `O=C1NC(=O)c2ccc(-c3ccc(CO)cc3)cc2C1=CNCc1ccc(O)c(O)c1` [Example 817, 4-[(3,4-Dihydroxy-benzylamino)-methylene]-6-(4-hydroxymethyl-phenyl)-4H-isoquinoline-1,3-dione], the IC50 is 7 µM on cyclin E/CDK2 enzyme (setting [1]); 7 µM on cyclin B/CDK1 enzyme (setting [2]); 0.04 µM on cyclin D1/cdk 4 enzyme (setting [3]); 34.9 µM in the assay on LoVo (setting [4]); 46.9 µM in the assay on HCT-116 (setting [5]); 24.9 µM with MCF-7 (setting [6]). The IC50 in the assay on BT474 (setting [7]) amounted to 16.2 µM.
With `O=C1NC(=O)c2ccc(-c3ccc[nH]3)cc2C1=CNCc1ccc(O)c(O)c1` [Example 647, 4-[(3,4-Dihydroxy-benzylamino)-methylene]-6-(1H-pyrrol-2-yl)-4H-isoquinoline-1,3-dione], the IC50 on cyclin E/CDK2 enzyme (setting [1]) is 2.6 µM; at cyclin B/CDK1 enzyme (setting [2]), 8.6 µM; at cyclin D1/cdk 4 enzyme (setting [3]) it was less than 0.005 µM; with LoVo (setting [4]) it was 9.5 µM; with HCT-116 (setting [5]), 15.3 µM; with MCF-7 (setting [6]), 19.5 µM. For the same molecule, the IC50 in the assay on BT474 (setting [7]) came to 18.3 µM.
